Results reported in US20240124434A1, “ATF6 INHIBITORS AND USES THEREOF” (Altos Labs, Inc., priority 2018, published 2024).
Converted amounts (≈) assume the structure as drawn. Where two headings read alike, the source gives them in different places.

Tests used:
[1] = Kinetic solubility (nephelometry); type: physicochemical; conditions: PBS pH 7.4, 1% DMSO, 1 hour at 37° C., light scattering at 625 nm
Experimental: Concentration (μM) was then calculated by segmental regression. Amiodarone (#A8423 Aldrich) was used as positive control.

in vivo = conditions: Balb/c, mouse, po, 10 mg/kg
Experimental: (§3) Tested compounds were formulated at 1 mg/mL as a dosing solution for oral administration in vehicle A: 10% dimethylacetamide (DMAC), 20% propylene glycol, and 40% PEG-400 or vehicle B: 10% Kolliphor® EL and 10% ethanol (EtOH).
(§4) Animals were acclimated for a minimum period of 4 days upon arrival at the testing facility.
(§5) At the day of study, mice were weighed, identified by marking the tail with numbers using a non-toxic permanent marker, and designated into ten experimental groups (n=3 per group).
(§6) Non-dosed mice were used to collect samples of zero time points. […] Blood samples were centrifuged immediately at 9,000 g at 4° C. for 5 minutes and then plasmas were separated. Plasma samples were placed into individually labeled cryovials and stored in a −80° C. freezer until LC/MS/MS bioanalysis.
(§7) The bioanalysis of plasma samples was conducted with a QTRAP 4500 triple quadrupole mass spectrometer (Applied Biosystems SCIEX) in the positive ion mode and interfaced with an Ekspert Ultra LC100 UPLC System (Eksigent). Calibration standards (0.01 to 10 μM) and QCs (0.02, 0.2 and 2.0 μM) were prepared from naïve mouse plasma in parallel with mouse plasma study samples (60 μL) by precipitation with three volumes of ice cold internal standard solution (acetonitrile containing 20 μM of theophylline). The precipitated samples were centrifuged at 6,100 g for 30 min. Following centrifugation, an aliquot of each supernatant was transferred to an autosampler plate and diluted with two volumes of aqueous mobile phase (0.1% formic acid in water). Samples were injected onto a reverse phase analytical column (YMC Triart C18; 2.0×50 mm; 1.9 μm; YMC CO) and eluted with a gradient of 0.1% formic acid in Acetonitrile. Assayed test compound and internal standards were monitored by a multiple reaction monitoring (MRM) experiment using an Analyst software (v1.6.2, Applied Biosystems SCIEX). Quantitation was conducted using a MultiQuant software (v2.1, Applied Biosystems SCIEX) and the resulting calibration curve was fitted with a linear regression and 1/x weighting. The lower limits of quantitation were 1<LLQ <5 ng/mL.

[2] = Oral bioavailability and PK parameters in Balb/c mice; conditions: single oral dose 10 mg/kg; for Vz: volume of distribution
Experimental: as §3, §4, §5, §6, §7

ATF6 = assay: ERSE ATF6-luciferase reporter assay (thapsigargin-induced ER stress); type: cell-based, human; conditions: for inhibition at 1 µM: read-out: Inh. ATF6-Luc @ 1 μM [%]
CYP2B6 = CYP2B6 (Homo sapiens (Human), UniProt P20813); assay: CYP inhibition in human liver microsomes
Chain of CYP2B6 (P20813 whole entry, canonical isoform): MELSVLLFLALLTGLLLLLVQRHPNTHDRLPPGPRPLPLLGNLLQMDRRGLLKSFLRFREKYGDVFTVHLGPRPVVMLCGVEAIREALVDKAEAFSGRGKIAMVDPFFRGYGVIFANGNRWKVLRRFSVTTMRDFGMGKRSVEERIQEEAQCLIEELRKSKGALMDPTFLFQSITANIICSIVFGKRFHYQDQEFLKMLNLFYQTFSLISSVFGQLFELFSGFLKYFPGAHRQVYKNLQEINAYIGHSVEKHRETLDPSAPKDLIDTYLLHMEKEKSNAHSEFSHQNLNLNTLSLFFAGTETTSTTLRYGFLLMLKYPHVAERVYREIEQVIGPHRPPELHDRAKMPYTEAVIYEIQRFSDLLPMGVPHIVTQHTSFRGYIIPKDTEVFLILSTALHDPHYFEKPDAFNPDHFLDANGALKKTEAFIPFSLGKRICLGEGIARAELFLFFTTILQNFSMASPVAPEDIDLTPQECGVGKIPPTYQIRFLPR
Experimental: (§1) CYP inhibition by test compounds in human liver microsomes (HLM) for seven major CYP450 isoforms CYP1A2, CYP2C9, CYP2D6, CYP2B6, CYP2C8, CYP2C19 and CYP3A4 were assessed. […] 50 μM phenacetin, 2 μM midazolam, 5 μM diclofenac, 50 μM mephenytoin, 80 μM bupropion, and 5 μM dextromethorphan were used as probe substrates of CYP1A2, CYP3A4, CYP2C9, CYP2C19, CYP2B6, and CYP2D6, respectively. The incubation times were 20 min for […], CYP2D6, CYP2C9, CYP2B6, and CYP2C8; 40 min for CYP2C19; and 10 min for CYP 3A4. Following incubations, the reactions were terminated with acetonitrile containing internal standard. The samples were centrifuged and the supernatants were analyzed for the formation of metabolites (1-hydroxymidazolam (CYP3A4), 4-hydroxydiclofenac (CYP2C9), 4-hydroxymephenytoin (CYP2C19) and dextrorphan (CYP2D6), hydroxybupropion (CYP2B6), acetaminophen (CYP1A2), desethylamodiaquine (CYP2C8)) by LC/MS/MS.

CYP3A4 = CYP3A4 (Homo sapiens (Human), UniProt P08684); assay: CYP inhibition in human liver microsomes
Chain of CYP3A4 (P08684 whole entry): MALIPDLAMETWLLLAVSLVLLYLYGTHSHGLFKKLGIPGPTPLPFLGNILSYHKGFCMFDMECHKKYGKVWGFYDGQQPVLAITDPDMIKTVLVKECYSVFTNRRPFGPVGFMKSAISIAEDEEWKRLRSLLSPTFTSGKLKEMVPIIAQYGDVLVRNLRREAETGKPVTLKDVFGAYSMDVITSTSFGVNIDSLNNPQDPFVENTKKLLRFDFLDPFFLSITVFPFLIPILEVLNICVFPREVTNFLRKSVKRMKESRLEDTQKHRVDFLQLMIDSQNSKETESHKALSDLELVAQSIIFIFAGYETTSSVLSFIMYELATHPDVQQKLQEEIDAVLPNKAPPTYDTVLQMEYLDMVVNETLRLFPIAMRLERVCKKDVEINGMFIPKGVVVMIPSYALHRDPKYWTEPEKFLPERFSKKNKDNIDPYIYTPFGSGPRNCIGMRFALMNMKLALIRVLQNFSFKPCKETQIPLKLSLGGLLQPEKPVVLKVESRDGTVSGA
Experimental: as §1

CYP2D6 = CYP2D6 (Homo sapiens (Human), UniProt P10635); assay: CYP inhibition in human liver microsomes
Chain of CYP2D6 (P10635 whole entry): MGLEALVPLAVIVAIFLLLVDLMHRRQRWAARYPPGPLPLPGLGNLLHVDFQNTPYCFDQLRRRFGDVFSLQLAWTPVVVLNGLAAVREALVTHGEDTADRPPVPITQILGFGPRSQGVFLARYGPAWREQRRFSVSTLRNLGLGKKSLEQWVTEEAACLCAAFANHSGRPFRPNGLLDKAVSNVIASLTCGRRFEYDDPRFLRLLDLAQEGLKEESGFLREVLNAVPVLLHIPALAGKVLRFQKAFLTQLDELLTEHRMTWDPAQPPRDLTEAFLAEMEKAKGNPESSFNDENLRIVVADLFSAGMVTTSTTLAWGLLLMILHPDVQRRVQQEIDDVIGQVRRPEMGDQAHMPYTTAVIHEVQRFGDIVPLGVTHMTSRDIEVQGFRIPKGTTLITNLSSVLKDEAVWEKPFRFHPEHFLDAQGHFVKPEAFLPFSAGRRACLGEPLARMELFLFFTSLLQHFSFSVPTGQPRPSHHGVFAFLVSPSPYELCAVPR
Experimental: as §1

CYP2C9 = CYP2C9 (Homo sapiens (Human), UniProt P11712); assay: CYP inhibition in human liver microsomes
Chain of CYP2C9 (P11712 whole entry): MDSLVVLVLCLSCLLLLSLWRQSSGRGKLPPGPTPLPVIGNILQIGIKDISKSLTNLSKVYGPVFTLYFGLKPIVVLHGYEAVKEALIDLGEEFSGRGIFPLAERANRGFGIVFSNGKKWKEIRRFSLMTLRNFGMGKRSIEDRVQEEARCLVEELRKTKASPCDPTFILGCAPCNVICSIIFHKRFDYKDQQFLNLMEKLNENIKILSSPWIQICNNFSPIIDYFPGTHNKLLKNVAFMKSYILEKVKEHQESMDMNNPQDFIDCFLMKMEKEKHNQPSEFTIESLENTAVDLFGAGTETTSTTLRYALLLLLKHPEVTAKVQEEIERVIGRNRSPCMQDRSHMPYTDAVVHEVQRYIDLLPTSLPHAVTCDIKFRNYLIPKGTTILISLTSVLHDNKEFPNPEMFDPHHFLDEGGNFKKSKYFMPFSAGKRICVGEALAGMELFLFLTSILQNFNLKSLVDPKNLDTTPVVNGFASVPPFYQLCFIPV
Experimental: as §1

CYP2C19 = CYP2C19 (Homo sapiens (Human), UniProt P33261); assay: CYP inhibition in human liver microsomes
Chain of CYP2C19 (P33261 whole entry): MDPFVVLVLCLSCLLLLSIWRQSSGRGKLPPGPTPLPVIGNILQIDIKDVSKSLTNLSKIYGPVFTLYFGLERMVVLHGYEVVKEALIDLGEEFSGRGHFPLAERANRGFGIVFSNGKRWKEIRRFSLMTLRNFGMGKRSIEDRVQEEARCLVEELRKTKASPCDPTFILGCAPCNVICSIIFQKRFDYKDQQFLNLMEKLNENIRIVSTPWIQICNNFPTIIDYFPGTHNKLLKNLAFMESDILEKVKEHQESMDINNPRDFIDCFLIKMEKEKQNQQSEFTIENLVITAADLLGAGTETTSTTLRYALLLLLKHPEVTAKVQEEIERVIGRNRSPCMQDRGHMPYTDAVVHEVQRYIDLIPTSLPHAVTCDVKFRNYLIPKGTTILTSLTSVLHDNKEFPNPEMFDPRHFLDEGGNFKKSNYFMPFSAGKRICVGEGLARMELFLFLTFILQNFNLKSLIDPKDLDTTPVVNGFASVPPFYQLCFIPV
Experimental: as §1

CYP1A2 = CYP1A2 (Homo sapiens (Human), UniProt P05177); assay: CYP inhibition in human liver microsomes
Chain of CYP1A2 (P05177 whole entry): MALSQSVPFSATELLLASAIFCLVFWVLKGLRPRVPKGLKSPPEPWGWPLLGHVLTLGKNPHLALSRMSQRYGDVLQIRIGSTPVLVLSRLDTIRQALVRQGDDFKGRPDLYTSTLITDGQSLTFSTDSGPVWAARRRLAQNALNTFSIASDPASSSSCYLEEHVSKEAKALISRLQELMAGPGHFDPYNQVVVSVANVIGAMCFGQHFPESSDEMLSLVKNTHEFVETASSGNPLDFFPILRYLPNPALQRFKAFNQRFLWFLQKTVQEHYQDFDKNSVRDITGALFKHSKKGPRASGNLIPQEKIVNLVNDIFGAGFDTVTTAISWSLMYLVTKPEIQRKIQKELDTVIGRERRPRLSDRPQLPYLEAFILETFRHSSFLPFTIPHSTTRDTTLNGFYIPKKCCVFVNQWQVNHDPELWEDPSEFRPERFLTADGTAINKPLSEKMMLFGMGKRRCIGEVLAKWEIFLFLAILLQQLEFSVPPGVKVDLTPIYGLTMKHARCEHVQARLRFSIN
Experimental: as §1

[3] = In vitro microsomal stability, mouse liver microsomes; type: in vitro ADME; conditions: for half-life at 1 μM / half-life at […], 1 µM: mouse, read-out: T1/2 @ mLM; for half-life at 1 μM / microsomal CLint at 1 μM / half-life at […], 1 µM / microsomal CLint at […], 1 µM: pH 7.4; for microsomal CLint at 1 μM / microsomal CLint at […], 1 µM: read-out: Clint @ mLM; for Rem. @ mLM (%): remaining fraction after 30 min, 1 mM NADPH
Method in brief: (§2)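 1 μM compound was incubated at 37 °C with 0.5 mg/mL human, mouse or rat liver microsomes and 1 mM NADPH in 100 mM phosphate buffer pH 7.4. Reactions were stopped at 0, 5, 15 and 30 min with cold acetonitrile containing propranolol internal standard.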

[4] = mouse, in vivo, po, 10 mg/kg; for AUCExtr [%] / F [%]: Balb/c
Experimental: as §3, §4, §5, §6, §7

[5] = In vitro microsomal stability, human liver microsomes; type: in vitro ADME; conditions: for half-life at 1 μM / half-life at […], 1 µM: human, read-out: T1/2 @ hLM; for half-life at 1 μM / microsomal CLint at 1 μM / half-life at […], 1 µM / microsomal CLint at […], 1 µM: pH 7.4; for microsomal CLint at 1 μM / microsomal CLint at […], 1 µM: read-out: Clint @ hLM; for Rem. @ hLM (%): remaining fraction after 30 min, 1 mM NADPH
Method in brief: as §2

[6] = In vitro microsomal stability, rat liver microsomes; type: in vitro ADME; conditions: for microsomal CLint at 1 μM / microsomal CLint at […], 1 µM: read-out: Clint @ rLM; for Rem. @ rLM (%): remaining fraction after 30 min, 1 mM NADPH
Method in brief: as §2

CYP2C8 = CYP2C8 (Homo sapiens (Human), UniProt P10632); assay: CYP inhibition in human liver microsomes; conditions: read-out: CYP-2C8, metabolite desethylamodiaquine
Chain of CYP2C8 (P10632 whole entry): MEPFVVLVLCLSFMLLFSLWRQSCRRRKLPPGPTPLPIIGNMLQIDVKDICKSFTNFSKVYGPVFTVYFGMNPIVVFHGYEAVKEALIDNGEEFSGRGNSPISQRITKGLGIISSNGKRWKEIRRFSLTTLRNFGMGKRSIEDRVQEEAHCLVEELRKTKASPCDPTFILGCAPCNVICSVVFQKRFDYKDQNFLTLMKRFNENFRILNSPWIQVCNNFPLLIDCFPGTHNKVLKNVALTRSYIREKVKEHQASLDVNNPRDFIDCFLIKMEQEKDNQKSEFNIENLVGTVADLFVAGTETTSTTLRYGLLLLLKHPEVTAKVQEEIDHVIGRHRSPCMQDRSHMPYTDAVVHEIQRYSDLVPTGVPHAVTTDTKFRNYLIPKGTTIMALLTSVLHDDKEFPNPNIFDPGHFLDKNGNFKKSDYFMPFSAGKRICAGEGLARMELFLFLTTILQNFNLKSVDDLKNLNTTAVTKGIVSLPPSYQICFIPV
Experimental: as §1

[7] = aqueous buffer, kinetic from dmso stock
[8] = intrinsic clearance, mouse liver microsomes
[9] = 1 μM compound, 0.5 mg/mL mouse liver microsomes
[10] = intrinsic clearance, human liver microsomes
[11] = 1 μM compound, 0.5 mg/mL human liver microsomes
[12] = pH 7.4, intrinsic clearance, rat liver microsomes
[13] = rat, rat liver microsomes, pH 7.4, read-out: T1/2 @ rLM
[14] = 1 μM compound, 0.5 mg/mL rat liver microsomes
[15] = read-out: CYP-3A4, human liver microsomes, probe substrate midazolam
[16] = Homo sapiens, U2OS, dose-response 30 μM to 1 nM, thapsigargin-induced ER stress, U2-OS ATF6 luc reporter cells, read-out: IC50 ATF6-Luc reporter
[17] = Homo sapiens, U2OS, 1 μM test compound, thapsigargin-induced ER stress, U2-OS ATF6 luc reporter cells, 8 hr
[18] = read-out: CYP-2B6, human liver microsomes, probe substrate bupropion
[19] = read-out: CYP-2D6, human liver microsomes, probe substrate dextromethorphan
[20] = read-out: CYP-2C9, human liver microsomes, probe substrate diclofenac
[21] = read-out: CYP-2C19, human liver microsomes, probe substrate mephenytoin
[22] = read-out: CYP-1A2, human liver microsomes, probe substrate phenacetin

CC(c1ccc(C(F)(F)F)cc1C(F)(F)F)n1cc(NC(=O)c2cc(-c3ccccn3)on2)cn1 (single isomer, unassigned) [“Enantiomer A” of Example S5, N-(1-(1-(2,4-bis(trifluoromethyl)phenyl)ethyl)-1H-pyrazol-4-yl)-5-(pyridin-2-yl)isoxazole-3-carboxamide]
solubility kinetic at 1 h [1, 7]: 4.68 µM (≈ 2.32 µg/mL) | AUC(0-inf) (in vivo): 32400 ng·h/mL | AUC(0-t) (in vivo): 18500 ng·h/mL | Cmax (in vivo): 4590 ng/mL | Tmax (in vivo): 1 h | half-life (in vivo): 6.88 h | Vz [2]: 3.07 L/kg | IC50 (ATF6): < 1 µM | Inh. ATF6-Luc @ 1 μM [%] (ATF6; 8 h, 1 µM): +++ (+++ refers to >50% inhibition at 1 μM test compound) | IC50 (CYP2B6): 2.49 µM | IC50 (CYP3A4): > 50 µM | IC50 (CYP2D6): 2.3 µM | IC50 (CYP2C9): 3.07 µM | IC50 (CYP2C19): 2.31 µM | IC50 (CYP1A2): > 50 µM | half-life at 1 μM ([3]; mouse liver microsomes): 0.582 h | microsomal CLint at 1 μM [3, 8]: 39.7 µL/min/mg | Rem. @ mLM (%) [3, 9]: 53.8% | AUCExtr [%] [4]: 43% | F [%] [4]: 66.3% | Last time point for AUClast [4]: 8 h | half-life at 1 μM ([5]; human liver microsomes): 1.66 h | microsomal CLint at 1 μM [5, 10]: 13.9 µL/min/mg | Rem. @ hLM (%) [5, 11]: 81.9% | microsomal CLint at 1 μM [6, 12]: 11.5 µL/min/mg | half-life at 1 μM [6, 13]: 2.02 h | Rem. @ rLM (%) [6, 14]: 80%

O=C(Nc1cnn(Cc2ccc(C(F)(F)F)cc2C(F)(F)F)c1)c1cc(-c2ccco2)on1 [Ceapin-A7, reference compound]
solubility kinetic at 1 h [1]: 27.7 µM (≈ 13 µg/mL) | F [%] ([2]; Bioavailability): 1.04% | Last time point for AUClast [2]: 6 h | CL ([2]; clearance): 231 L/h/kg | t1/2 ([2]; half-life): 2.49 h | AUCinf ([2]; plasma): 43.3 ng·h/mL | AUClast ([2]; plasma): 39.1 ng·h/mL | Cmax ([2]; plasma): 68.7 ng/mL | Tmax ([2]; plasma): 0.25 h | AUCExtr [%] ([2]; plasma, extrapolated AUC): 9.56% | Vz [2]: 831 L/kg | Inh. ATF6-Luc @ 1 μM [%] (ATF6; 1 μM test compound, thapsigargin-induced ER stress, U2-OS ATF6 luc reporter cells, 8 hr): +++ (+++ refers to >50% inhibition at 1 μM test compound) | IC50 (ATF6; dose-response 30 μM to 1 nM, thapsigargin-induced ER stress, U2-OS ATF6 luc reporter cells, read-out: IC50 ATF6-Luc reporter): < 1 µM | IC50 (CYP2B6; microsomes): 7.48 µM | IC50 (CYP3A4; [15]): > 50 µM | IC50 (CYP2D6; microsomes): > 50 µM | IC50 (CYP2C9; microsomes): > 45.3 µM | IC50 (CYP1A2; microsomes): > 50 µM | T1/2 @ mLM ([3]; half-life, 1 μM compound, 0.5 mg/mL mouse liver microsomes): 9.84 min | Clint @ mLM [3, 8]: 141 µL/min/mg | Rem. @ mLM (%) [3, 9]: 12% | T1/2 @ hLM ([5]; half-life, 1 μM compound, 0.5 mg/mL human liver microsomes): 0.36 h | Clint @ hLM [5, 10]: 64.2 µL/min/mg | Rem. @ hLM (%) [5, 11]: 35.4% | T1/2 @ rLM ([6]; half-life, 1 μM compound, 0.5 mg/mL rat liver microsomes): 0.19 h | Clint @ rLM ([6]; intrinsic clearance, rat liver microsomes): 121 µL/min/mg | Rem. @ rLM (%) [6, 14]: 14.5%

CC(c1ccc(C(F)(F)F)cc1C(F)(F)F)n1cc(NC(=O)c2nnc(-c3cnccn3)s2)cn1 (stereo not drawn) [Compound 136, N-(1-(1-(2,4-bis(trifluoromethyl)phenyl)ethyl)-1H-pyrazol-4-yl)-5-(pyrazin-2-yl)-1,3,4-thiadiazole-2-carboxamide]
solubility kinetic at 1 h [1, 7]: 2.34 µM (≈ 1.2 µg/mL) | IC50 (ATF6; [16]): < 1 µM | inhibition at 1 µM (ATF6; [17]): > 50% | IC50 (CYP2B6; [18]): > 50 µM | IC50 (CYP3A4; [15]): > 50 µM | IC50 (CYP2D6; [19]): > 50 µM | IC50 (CYP2C9; [20]): > 50 µM | IC50 (CYP2C19; [21]): > 50 µM | IC50 (CYP2C8): > 50 µM | IC50 (CYP1A2; [22]): > 50 µM | half-life at […], 1 µM ([3]; mouse liver microsomes): 1.77 h | microsomal CLint at […], 1 µM [3, 8]: 13 µL/min/mg | Rem. @ mLM (%) [3, 9]: 78.7% | half-life at […], 1 µM ([5]; human liver microsomes): 1.57 h | microsomal CLint at […], 1 µM [5, 10]: 15 µL/min/mg | Rem. @ hLM (%) [5, 11]: 77.8% | microsomal CLint at […], 1 µM [6, 12]: 44 µL/min/mg | half-life at 1 μM [6, 13]: 0.528 h | Rem. @ rLM (%) [6, 14]: 43.9%

CC(c1ccc(C(F)(F)F)cc1C(F)(F)F)n1cc(NC(=O)c2cnc(-c3ccccn3)s2)cn1 (stereo not drawn) [Compound 78, N-(1-(1-(2,4-bis(trifluoromethyl)phenyl)ethyl)-1H-pyrazol-4-yl)-2-(pyridin-2-yl)thiazole-5-carboxamide]
IC50 (ATF6; [16]): 1 to 10 µM | inhibition at 1 µM (ATF6; [17]): < 25% | IC50 (CYP2B6; [18]): 4.97 µM | IC50 (CYP3A4; [15]): > 50 µM | IC50 (CYP2D6; [19]): 2.78 µM | IC50 (CYP2C9; [20]): 5.48 µM | IC50 (CYP2C19; [21]): 5.27 µM | IC50 (CYP2C8): 1.8 µM | IC50 (CYP1A2; [22]): 22.4 µM | half-life at […], 1 µM ([3]; mouse liver microsomes): 1.31 h | microsomal CLint at […], 1 µM [3, 8]: 17.6 µL/min/mg | Rem. @ mLM (%) [3, 9]: 76.8% | half-life at […], 1 µM ([5]; human liver microsomes): 1.59 h | microsomal CLint at […], 1 µM [5, 10]: 14.5 µL/min/mg | Rem. @ hLM (%) [5, 11]: 80.4% | microsomal CLint at […], 1 µM [6, 12]: 22.3 µL/min/mg | half-life at […], 1 µM [6, 13]: 1.04 h | Rem. @ rLM (%) [6, 14]: 71.6%

CC(c1ccc(C(F)(F)F)cc1C(F)(F)F)n1cc(NC(=O)c2cc(-c3ccco3)on2)cn1 (single isomer, unassigned) [“Enantiomer A” of Example S6, N-(1-(1-(2,4-bis(trifluoromethyl)phenyl)ethyl)-1H-pyrazol-4-yl)-5-(furan-2-yl)isoxazole-3-carboxamide]
solubility kinetic at 1 h [1, 7]: 27 µM (≈ 13.1 µg/mL) | AUC(0-inf) (in vivo): 626 ng·h/mL | AUC(0-t) (in vivo): 615 ng·h/mL | Cmax (in vivo): 579 ng/mL | Tmax (in vivo): 0.5 h | half-life (in vivo): 1.6 h | IC50 (ATF6): < 1 µM | Inh. ATF6-Luc @ 1 μM [%] (ATF6; 8 h, 1 µM): +++ (+++ refers to >50% inhibition at 1 μM test compound) | IC50 (CYP2B6): 4.18 µM | IC50 (CYP3A4): > 50 µM | IC50 (CYP2D6): 23.7 µM | IC50 (CYP2C9): 7.88 µM | IC50 (CYP2C19): 3.54 µM | IC50 (CYP1A2): 15.3 µM | half-life at 1 μM ([3]; mouse liver microsomes): 0.0995 h | microsomal CLint at 1 μM [3, 8]: 232 µL/min/mg | Rem. @ mLM (%) [3, 9]: 3.05% | AUCExtr [%] [4]: 1.73% | F [%] [4]: 9.6% | Last time point for AUClast [4]: 8 h | half-life at 1 μM ([5]; human liver microsomes): 0.4 h | microsomal CLint at 1 μM [5, 10]: 57.8 µL/min/mg | Rem. @ hLM (%) [5, 11]: 41.8% | microsomal CLint at 1 μM [6, 12]: 283 µL/min/mg | half-life at 1 μM [6, 13]: 0.0815 h | Rem. @ rLM (%) [6, 14]: 1.4%
